{"source": "patent US5011952A", "about": "“Phospholipase A2 inhibitor” (Shionogi & Co., Ltd., priority 1989, dated 1991)", "key": {"Solubility in solvents": {"assay": "Solubility in solvents", "type": "physicochemical"}, "[1]": {"biological_target": "T1, PLA2 released from thrombin-stimulated rat platelets (Rattus norvegicus, UniProt P14423)", "T1 construct": "PLA2 released from thrombin-stimulated rat platelets; from tissue", "T1 sequence (P14423 22-146)": "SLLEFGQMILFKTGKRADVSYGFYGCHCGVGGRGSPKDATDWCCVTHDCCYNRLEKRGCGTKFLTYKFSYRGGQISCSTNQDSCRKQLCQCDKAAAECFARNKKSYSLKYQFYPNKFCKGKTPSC", "assay": "PLA2 inhibitory activity, rat platelet-derived PLA2", "type": "biochemical", "details": "for inhibitory concentrations of α-thielocin versus β-thielocin: isomers equilibrated in the reaction solution", "protocol": "PLA2 inhibitory activities of thielocin were determined according to the following procedure.\nPLA2 released from thrombin-stimulated rat platelets was prepared by immuno-affinity chromatography using antibody MD 7.1-coupled Sepharose (Murakami et. al, J. Biochem 104: 884-888, 1988). The standard assay conditions included, 250 μl of Tris-HCl buffer (100 mM, pH 7.4), CaCl2 (3 mM), 40 μM [^14 C] phosphatidylethanolamine and enzyme. The reaction was started by the addition of the enzyme solution. Following incubation at 37° C. for 20 min the reactions were terminated by addition of 1.25 ml of Dole's reagent (Dole, V. P. & H, Meinerts, J. Biol. Chem 235: 2595-2599, 1960). Then released free fatty acid was extracted, and counted in Liquiflour (Du Pont-New England Nuclear) to determine the release of the radioactivity. Inhibition activity is expressed as percent of enzyme control."}, "[2]": {"biological_target": "T2, PLA2 derived from porcine pancreas (Sus scrofa, UniProt P00592)", "T2 construct": "porcine-derived PLA2; from tissue; host or cells: porcine pancreas", "T2 sequence (P00592 23-146)": "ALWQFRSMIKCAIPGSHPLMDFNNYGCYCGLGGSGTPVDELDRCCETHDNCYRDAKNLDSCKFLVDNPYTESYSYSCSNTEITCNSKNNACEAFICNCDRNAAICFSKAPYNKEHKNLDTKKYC", "assay": "PLA2 inhibitory activity, porcine pancreas-derived PLA2", "type": "biochemical", "details": "read-out: concentration required for exhibiting 50 % inhibitory activity"}, "snake venom-derived PLA2": {"tested_on": "snake venom-derived PLA2", "assay": "PLA2 inhibitory activity, snake venom-derived PLA2", "type": "biochemical"}}, "note": "pIC50: −log10 of the molar value."}
{"smiles": "COc1c(C)c(OC(=O)c2c(C)c(C)c(OC(=O)C3=C(C)C(C)(O)C4(O)Oc5c(C)c(OC)c(C(=O)Oc6c(C)c(C)c(C(=O)O)c(OC)c6C)c(C)c5CC4(C)C3=O)c(C)c2OC)c(C)c(C)c1C(=O)O", "note": "(stereo not drawn) [Thielocin α, α-thielocin]", "values": [{"measurement": "Solubility", "setting": "Solubility in solvents; acetone", "result": "Soluble"}, {"measurement": "Solubility", "setting": "Solubility in solvents; acetonitrile", "result": "Soluble"}, {"measurement": "Solubility", "setting": "Solubility in solvents; chloroform", "result": "Soluble"}, {"measurement": "Solubility", "setting": "Solubility in solvents; dimethylsulfoxide", "result": "Soluble"}, {"measurement": "Solubility", "setting": "Solubility in solvents; ethanol", "result": "slightly soluble"}, {"measurement": "Solubility", "setting": "Solubility in solvents; ethyl acetate", "result": "Soluble"}, {"measurement": "Solubility", "setting": "Solubility in solvents; ethyl ether", "result": "sparingly soluble or insoluble"}, {"measurement": "Solubility", "setting": "Solubility in solvents; hexane", "result": "sparingly soluble or insoluble"}, {"measurement": "Solubility", "setting": "Solubility in solvents; methanol", "result": "slightly soluble"}, {"measurement": "Solubility", "setting": "Solubility in solvents; petroleum ether", "result": "sparingly soluble or insoluble"}, {"measurement": "Solubility", "setting": "Solubility in solvents; water", "result": "sparingly soluble or insoluble"}, {"measurement": "inhibitory concentrations of α-thielocin versus β-thielocin", "setting": "[1]", "result": "not distinguished"}]}
{"smiles": "COc1c(C)c(OC(=O)c2c(C)c(C)c(OC(=O)C3=C(C)C(C)(O)C4(O)Oc5c(C)c(OC)c(C(=O)Oc6c(C)c(C)c(C(=O)O)c(OC)c6C)c(C)c5CC4(C)C3=O)c(C)c2OC)c(C)c(C)c1C(=O)O", "note": "(stereo not drawn) [Thielocin β, β-thielocin]", "values": [{"measurement": "Solubility", "setting": "Solubility in solvents; acetone", "result": "slightly soluble"}, {"measurement": "Solubility", "setting": "Solubility in solvents; acetonitrile", "result": "slightly soluble"}, {"measurement": "Solubility", "setting": "Solubility in solvents; chloroform", "result": "slightly soluble"}, {"measurement": "Solubility", "setting": "Solubility in solvents; dimethylsulfoxide", "result": "Soluble"}, {"measurement": "Solubility", "setting": "Solubility in solvents; ethanol", "result": "slightly soluble"}, {"measurement": "Solubility", "setting": "Solubility in solvents; ethyl acetate", "result": "slightly soluble"}, {"measurement": "Solubility", "setting": "Solubility in solvents; ethyl ether", "result": "sparingly soluble or insoluble"}, {"measurement": "Solubility", "setting": "Solubility in solvents; hexane", "result": "sparingly soluble or insoluble"}, {"measurement": "Solubility", "setting": "Solubility in solvents; methanol", "result": "slightly soluble"}, {"measurement": "Solubility", "setting": "Solubility in solvents; petroleum ether", "result": "sparingly soluble or insoluble"}, {"measurement": "Solubility", "setting": "Solubility in solvents; water", "result": "sparingly soluble or insoluble"}, {"measurement": "inhibitory concentrations of α-thielocin versus β-thielocin", "setting": "[1]", "result": "not distinguished"}]}
{"smiles": "COc1c(C)c(OC(=O)c2c(C)c(C)c(OC(=O)C3=C(C)C(C)(O)C4(O)Oc5c(C)c(OC)c(C(=O)Oc6c(C)c(C)c(C(=O)O)c(OC)c6C)c(C)c5CC4(C)C3=O)c(C)c2OC)c(C)c(C)c1C(=O)O", "note": "(stereo not drawn) [thielocin]", "values": [{"measurement": "pIC50", "setting": "[2]", "result": 4.33}, {"measurement": "concentration required for exhibiting 50 % inhibitory activity", "setting": "snake venom-derived PLA2", "result": 10, "unit": "µg/mL"}, {"measurement": "pIC50", "setting": "[1]; rat platelet-derived PLA2, [14C]phosphatidylethanolamine substrate, 37° C., 20 min, read-out: concentration required for exhibiting 50 % inhibitory activity", "result": 8.30}]}
